In patent US20240025863A1, “SOS1 PROTEIN DEGRADERS, PHARMACEUTICAL COMPOSITIONS THEREOF, AND THEIR THERAPEUTIC APPLICATIONS” (BioTheryX, Inc., priority 2020, published 2024):

What was measured:
Type in all cases: cell-based
H358 cells (G12C) = experiment: Cell viability assay (CellTiter-Glo), H358 cells; conditions: Homo sapiens, NCI-H358, 72 h; H358 cells, 3 days incubation, CellTiter-Glo luminescence; read-out: Inhibition of Cancerous Cells IC50 H358 (G12C)
Outline: (§1)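 Cells were plated in their growth medium (RPMI 1640 for H358 and SW48, DMEM for Lovo and SW480) with 2.5% FBS, then exposed to compound or DMSO for 3 days at 37 °C, 5% CO2. Viability was read as CellTiter-Glo luminescence after 10 min shaking.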

H23 cells = experiment: Cell viability assay (CellTiter-Glo), H23 cells; conditions: Homo sapiens, NCI-H23, 72 h; H23 cells, 3 days incubation, CellTiter-Glo luminescence; read-out: Inhibition of Cancerous Cells IC50 H23
Description: (§2) H358, H23, SW48, and AsPC-1 cells were cultured in RPMI 1640 media supplemented with 10% fetal bovine serum, streptomycin, and penicillin. Lovo and SW480 cells were cultured in DMEM media supplemented with 10% fetal bovine serum, streptomycin, and penicillin. The cell lines were plated in their respective medium supplemented with 2.5% fetal bovine serum, streptomycin, and penicillin. All cell lines were plated in white walled 96-well plates at 2,000 cells/well or 384-well plates at 500 cells/well, except Lovo, which were plated at 4,000 or 1,000 cells/well, respectively. The cells were incubated in DMSO (control) or a compound for 3 days at 37° C. under 5% CO2. A CELLTITER-GLO® reagent (100 μL) was then added to each well. After a 10 min incubation with shaking, luminescence was measured using an ENVISION® multimode plate reader.

AsPC-1 cells (G12D) = experiment: Cell viability assay (CellTiter-Glo), AsPC-1 cells; conditions: Homo sapiens, ASPC1, 72 h, 3 days incubation, CellTiter-Glo luminescence, read-out: Inhibition of Cancerous Cells IC50 AsPC-1 (G12D)
Description: as §2

SW480 cells (G12V) = experiment: Cell viability assay (CellTiter-Glo), SW480 cells; conditions: Homo sapiens, 72 h; SW480 cells, 3 days incubation, CellTiter-Glo luminescence; read-out: Inhibition of Cancerous Cells IC50 SW480 (G12V)
Outline: as §1

SW48 cells (wt) = experiment: Cell viability assay (CellTiter-Glo), SW48 cells; conditions: Homo sapiens, 72 h; SW48 cells, 3 days incubation, CellTiter-Glo luminescence; read-out: Inhibition of Cancerous Cells IC50 SW48 (wt)
Outline: as §1

Lovo cells (G13D) = experiment: Cell viability assay (CellTiter-Glo), Lovo cells; conditions: Homo sapiens, 72 h; Lovo cells, 3 days incubation, CellTiter-Glo luminescence; read-out: Inhibition of Cancerous Cells IC50 Lovo (G13D)
Outline: as §1

Structure (SMILES)	IC50 (H358 cells (G12C))	IC50 (H23 cells)	IC50 (AsPC-1 cells (G12D))	IC50 (SW480 cells (G12V))	IC50 (SW48 cells (wt))	IC50 (Lovo cells (G13D))
COc1cc2c(N[C@H](C)c3cccc(Br)c3)nc(C)nc2cc1OCCCCCCCN1CCC(c2cc3c(cc2F)C(=O)N(C2CCC(=O)NC2=O)C3)CC1 (stereo partly drawn) [Compound A22, 3-(5-(1-(7-((4-(((R)-1-(3-bromophenyl)ethyl)amino)-6-methoxy-2-methylquinazolin-7-yl)oxy)heptyl)piperidin-4-yl)-6-fluoro-1-oxoisoindolin-2-yl)piperidine-2,6-dione]	790 nM	900 nM				
CNCc1ccccc1-c1csc([C@H](C)Nc2nc(C)nc3cc(OCCCCCCCCC(=O)N[C@H](C(=O)N4C[C@H](O)C[C@H]4C(=O)NCc4ccc(-c5scnc5C)cc4)C(C)(C)C)c(OC)cc23)c1 [Compound D10, (2S,4R)-4-hydroxy-1-((S)-2-(9-((6-methoxy-2-methyl-4-(((S)-1-(4-(2-((methylamino)methyl)phenyl)thiophen-2-yl)ethyl)amino)quinazolin-7-yl)oxy)nonanamido)-3,3-dimethylbutanoyl)-N-(4-(4-methylthiazol-5-yl)benzyl)pyrrolidine-2-carboxamide]	750 nM	930 nM				
COc1cc2c(N[C@@H](C)c3cccs3)nc(C)nc2cc1OCCCCCCCCC(=O)N[C@H](C(=O)N1C[C@H](O)C[C@H]1C(=O)NCc1ccc(-c2scnc2C)cc1)C(C)(C)C [Compound D6, (2S,4R)-4-Hydroxy-1-((S)-2-(9-((6-methoxy-2-methyl-4-(((S)-1-(thiophen-2-yl)ethyl)amino)quinazolin-7-yl)oxy)nonanamido)-3,3-dimethylbutanoyl)-N-(4-(4-methylthiazol-5-yl)benzyl)pyrrolidine-2-carboxamide]	6100 nM	2700 nM				
COc1cc2c(N[C@H](C)c3cccc(Br)c3)nc(C)nc2cc1OCCCCCCCNCc1ccc(OCc2scc3c2CN(C2CCC(=O)NC2=O)C3=O)cc1 (stereo partly drawn) [Compound A41, 3-(1-((4-(((7-((4-(((R)-1-(3-Bromophenyl)ethyl)amino)-6-methoxy-2-methyl-quinazolin-7-yl)oxy)heptyl)amino)methyl)phenoxy)methyl)-4-oxo-4H-thieno[3,4-c]pyrrol-5(6H)-yl)piperidine-2,6-dione]	1500 nM	1300 nM				
COc1cc2nc(C)nc(N[C@H](C)c3cccc(Br)c3)c2cc1OCCCCCCCN1CCC(c2cc(F)cc3c2CN(C2CCC(=O)NC2=O)C3=O)CC1 (stereo partly drawn) [Compound A19, 3-(4-(1-(7-((4-(((R)-1-(3-Bromophenyl)ethyl)amino)-7-methoxy-2-methyl-quinazolin-6-yl)oxy)heptyl)piperidin-4-yl)-6-fluoro-1-oxoisoindolin-2-yl)piperidine-2,6-dione]	1700 nM	1900 nM				
COc1cc2c(N[C@H](C)c3cccc(Br)c3)nc(C)nc2cc1OCCCCCCCCCN1CCC(c2cc(F)cc3c2CN(C2CCC(=O)NC2=O)C3=O)CC1 (stereo partly drawn) [Compound A12, 3-(4-(1-(9-((4-(((R)-1-(3-Bromophenyl)ethyl)amino)-6-methoxy-2-methyl-quinazolin-7-yl)oxy)nonyl)piperidin-4-yl)-6-fluoro-1-oxoisoindolin-2-yl)piperidine-2,6-dione]	1400 nM	1200 nM				
COc1cc2c(N[C@H](C)c3cccc(Br)c3)nc(C)nc2cc1OCCCCCCCCC(=O)N[C@H](C(=O)N1C[C@H](O)C[C@H]1C(=O)NCc1ccc(-c2scnc2C)cc1)C(C)(C)C [Compound D2, (2S,4R)-1-((S)-2-(9-((4-(((R)-1-(3-bromophenyl)ethyl)amino)-6-methoxy-2-methylquinazolin-7-yl)oxy)nonanamido)-3,3-dimethylbutanoyl)-4-hydroxy-N-(4-(4-methylthiazol-5-yl)benzyl)pyrrolidine-2-carboxamide]	15000 nM	13000 nM				
CNCc1ccccc1-c1csc([C@H](C)Nc2nc(C)nc3cc(OC)c(OC)cc23)c1 [reference compound]	2400 nM	2300 nM				
COc1cc2c(N[C@H](C)c3cccc(Br)c3)nc(C)nc2cc1OCCN1CCN(CCN2CCC(c3cc4c(cc3F)C(=O)N(C3CCC(=O)NC3=O)C4)CC2)CC1 (stereo partly drawn) [Compound A67, 3-(5-(1-(2-(4-(2-((4-(((R)-1-(3-Bromophenyl)ethyl)amino)-6-methoxy-2-methyl-quinazolin-7-yl)oxy)ethyl)piperazin-1-yl)ethyl)piperidin-4-yl)-6-fluoro-1-oxoisoindolin-2-yl)piperidine-2,6-dione]	1700 nM		2100 nM	2700 nM	1100 nM	1000 nM
COc1cc2c(N[C@H](C)c3cccc(Br)c3)nc(C)nc2cc1OCCCCCCCCCCNc1cccc2c1CN(C1CCC(=O)NC1=O)C2=O (stereo partly drawn) [Compound A62, 3-(4-((10-((4-(((R)-1-(3-Bromophenyl)ethyl)amino)-6-methoxy-2-methyl-quinazolin-7-yl)oxy)decyl)amino)-1-oxoisoindolin-2-yl)piperidine-2,6-dione]	> 10000 nM		> 10000 nM	1300 nM	2400 nM	4000 nM
COc1cc2c(N[C@H](C)c3cccc(Br)c3)nc(C)nc2cc1OCCCCCCCCCCCCNC(=O)[C@H](CC(C)C)NC(=O)[C@@H](O)[C@H](N)Cc1ccccc1 [Compound B9, (S)-2-((2S,3R)-3-Amino-2-hydroxy-4-phenylbutanamido)-N-(12-((4-(((R)-1-(3-bromophenyl)ethyl)amino)-6-methoxy-2-methylquinazolin-7-yl)oxy)dodecyl)-4-methylpentanamide]	1200 nM		2700 nM	960 nM	1400 nM	730 nM
COc1cc2c(N[C@H](C)c3cc(N)cc(C(F)(F)F)c3)nc(C)nc2cc1OCCCCCCCN1CCC(c2cc3c(cc2F)C(=O)N(C2CCC(=O)NC2=O)C3)CC1 (stereo partly drawn) [Compound A28, 3-(5-(1-(7-((4-(((R)-1-(3-Amino-5-(trifluoromethyl)phenyl)ethyl)amino)-6-methoxy-2-methylquinazolin-7-yl)oxy)heptyl)piperidin-4-yl)-6-fluoro-1-oxoisoindolin-2-yl)-piperidine-2,6-dione]	1200 nM		1100 nM	500 nM	440 nM	550 nM
CN[C@@H](C)C(=O)N[C@H](C(=O)N1C[C@@H](NC(=O)CCCCCCCCCCOc2cc3nc(C)nc(N[C@H](C)c4cccc(Br)c4)c3cc2OC)C[C@H]1C(=O)N[C@@H]1CCCc2ccccc21)C1CCCCC1 [Compound B11, (2S,4S)-4-(11-((4-(((R)-1-(3-Bromophenyl)ethyl)amino)-6-methoxy-2-methyl-quinazolin-7-yl)oxy)undecanamido)-1-((S)-2-cyclohexyl-2-((S)-2-(methylamino)propanamido)-acetyl)-N—((R)-1,2,3,4-tetrahydronaphthalen-1-yl)pyrrolidine-2-carboxamide]	530 nM		960 nM	360 nM	530 nM	390 nM
CN[C@@H](C)C(=O)N[C@H](C(=O)N1CCC[C@H]1c1nc(C(=O)c2cccc(OCCCCCCCCOc3cc4nc(C)nc(N[C@H](C)c5cccc(Br)c5)c4cc3OC)c2)cs1)C1CCCCC1 [Compound B2, (S)—N—((S)-2-((S)-2-(4-(3-((8-((4-(((R)-1-(3-Bromophenyl)ethyl)amino)-6-methoxy-2-methylquinazolin-7-yl)oxy)octyl)oxy)benzoyl)thiazol-2-yl)pyrrolidin-1-yl)-1-cyclohexyl-2-oxoethyl)-2-(methylamino)propanamide]	980 nM		1200 nM	500 nM	980 nM	480 nM
COc1cc2c(N[C@H](C)c3cccc(Br)c3)nc(C)nc2cc1OCCCCCCCCCCCCCOc1cc(-c2scnc2C)ccc1CNC(=O)[C@@H]1C[C@@H](O)CN1C(=O)[C@@H](NC(C)=O)C(C)(C)C [Compound D14, (2S,4R)-1-((S)-2-Acetamido-3,3-dimethylbutanoyl)-N-(2-((13-((4-(((R)-1-(3-bromophenyl)ethyl)amino)-6-methoxy-2-methylquinazolin-7-yl)oxy)tridecyl)oxy)-4-(4-methyl-thiazol-5-yl)benzyl)-4-hydroxypyrrolidine-2-carboxamide]	> 10000 nM		> 10000 nM	3300 nM	> 10000 nM	640 nM
